Measurements published in article PMC8632988, “Inhibition of SYK and cSrc kinases can protect bone and cartilage in preclinical models of osteoarthritis and rheumatoid arthritis” (Scientific Reports, 2021).
pIC50: −log10 of the molar value. Values joined by “and” are separate entries in the source; they are usually repeats but may differ in a detail not shown here. Equal values may be shown once.

Tests used:
Experiment in all cases: Kinase selectivity profile assay
Type in all cases: biochemical
CK2a2 = target: T1, CK2a2 (Homo sapiens, UniProt P19784); conditions: 500 nM; relative to DMSO; read-out: Residual enzymatic activity
T1 construct: purchased Reaction Biology Corporation
In short: (§1)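 Radiometric kinase assay run by a standard protocol. Unbound phosphate was removed by washing filters in phosphoric acid, and product radioactivity gave percent remaining kinase activity versus DMSO vehicle reactions. Run in duplicate.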

TAK1 = target: T2, TAK1 (Homo sapiens, UniProt O43318); conditions: 500 nM; relative to DMSO; read-out: Residual enzymatic activity
T2 construct: purchased Reaction Biology Corporation
In short: as §1

PLK1 = target: T3, PLK1 (Homo sapiens, UniProt P53350); conditions: 500 nM; relative to DMSO; read-out: Residual enzymatic activity
T3 construct: purchased Reaction Biology Corporation
In short: as §1

RSK3 = target: T4, RSK3 (Homo sapiens, UniProt Q15349); conditions: 500 nM; relative to DMSO; read-out: Residual enzymatic activity
T4 construct: purchased Reaction Biology Corporation
In short: as §1

CTK/MATK = target: T5, CTK/MATK (Homo sapiens, UniProt P42679); conditions: 500 nM; relative to DMSO; read-out: Residual enzymatic activity
T5 construct: purchased Reaction Biology Corporation
In short: as §1

CLK2 = target: T6, CLK2 (Homo sapiens, UniProt P49760); conditions: 500 nM; relative to DMSO; read-out: Residual enzymatic activity
T6 construct: purchased Reaction Biology Corporation
In short: as §1

PBK/TOPK = target: T7, PBK/TOPK (Homo sapiens, UniProt Q96KB5); conditions: 500 nM; relative to DMSO; read-out: Residual enzymatic activity
T7 construct: purchased Reaction Biology Corporation
In short: as §1

IRAK4 = target: T8, IRAK4 (Homo sapiens, UniProt Q9NWZ3); conditions: 500 nM; relative to DMSO; read-out: Residual enzymatic activity
T8 construct: purchased Reaction Biology Corporation
In short: as §1

MSSK1/STK23 = target: T9, MSSK1/STK23 (Homo sapiens, UniProt Q9UPE1); conditions: 500 nM; relative to DMSO; read-out: Residual enzymatic activity
T9 construct: purchased Reaction Biology Corporation
In short: as §1

PAK4 = target: T10, PAK4 (Homo sapiens, UniProt O96013); conditions: 500 nM; relative to DMSO; read-out: Residual enzymatic activity
T10 construct: purchased Reaction Biology Corporation
In short: as §1

EPHB1 = target: T11, EPHB1 (Homo sapiens, UniProt P54762); conditions: for remaining activity at 0.5 µM: 500 nM, relative to DMSO, read-out: Residual enzymatic activity
T11 construct: purchased Reaction Biology Corporation (assay service)
T11 sequence (P54762 18-984): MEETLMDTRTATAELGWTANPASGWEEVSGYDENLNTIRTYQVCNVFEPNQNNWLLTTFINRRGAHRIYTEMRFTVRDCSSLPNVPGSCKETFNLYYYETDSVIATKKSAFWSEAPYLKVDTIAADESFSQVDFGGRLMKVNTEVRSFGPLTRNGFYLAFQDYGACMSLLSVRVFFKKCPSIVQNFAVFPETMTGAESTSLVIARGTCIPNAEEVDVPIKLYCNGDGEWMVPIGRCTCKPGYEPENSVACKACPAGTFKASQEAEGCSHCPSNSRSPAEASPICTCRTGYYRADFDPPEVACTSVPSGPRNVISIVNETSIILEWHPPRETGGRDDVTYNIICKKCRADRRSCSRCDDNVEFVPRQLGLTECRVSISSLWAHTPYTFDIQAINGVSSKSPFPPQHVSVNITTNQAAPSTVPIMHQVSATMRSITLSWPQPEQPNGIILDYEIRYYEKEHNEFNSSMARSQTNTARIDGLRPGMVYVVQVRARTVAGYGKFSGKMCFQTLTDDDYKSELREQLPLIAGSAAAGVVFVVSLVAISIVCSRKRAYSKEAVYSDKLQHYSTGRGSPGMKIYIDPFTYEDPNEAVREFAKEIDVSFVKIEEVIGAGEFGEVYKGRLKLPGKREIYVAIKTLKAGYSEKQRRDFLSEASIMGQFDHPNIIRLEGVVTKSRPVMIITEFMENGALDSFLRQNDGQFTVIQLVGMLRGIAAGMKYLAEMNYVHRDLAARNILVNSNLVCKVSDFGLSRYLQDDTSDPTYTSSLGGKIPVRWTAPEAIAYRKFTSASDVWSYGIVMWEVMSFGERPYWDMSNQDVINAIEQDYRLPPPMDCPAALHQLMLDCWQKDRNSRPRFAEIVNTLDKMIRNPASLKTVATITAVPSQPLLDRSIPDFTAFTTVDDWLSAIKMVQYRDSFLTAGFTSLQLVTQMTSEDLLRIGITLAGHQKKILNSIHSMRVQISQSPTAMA
In short: as §1

CLK1 = target: T12, CLK1 (Homo sapiens, UniProt P49759); conditions: 500 nM; relative to DMSO; read-out: Residual enzymatic activity
T12 construct: purchased Reaction Biology Corporation
In short: as §1

PKG1b = target: T13, PKG1b (Homo sapiens, UniProt Q13976); conditions: 500 nM; relative to DMSO; read-out: Residual enzymatic activity
T13 construct: purchased Reaction Biology Corporation
In short: as §1

JAK1 = target: T14, JAK1 (Homo sapiens, UniProt P23458); conditions: 500 nM; relative to DMSO; read-out: Residual enzymatic activity
T14 construct: purchased Reaction Biology Corporation
In short: as §1

TIE2/TEK = target: T15, TIE2/TEK (Homo sapiens, UniProt Q02763); conditions: 500 nM, relative to DMSO
T15 construct: purchased Reaction Biology Corporation
In short: as §1

PKCmu/PRKD1 = target: T16, PKCmu/PRKD1 (Homo sapiens, UniProt Q15139); conditions: 500 nM; relative to DMSO; read-out: Residual enzymatic activity
T16 construct: purchased Reaction Biology Corporation
In short: as §1

CLK3 = target: T17, CLK3 (Homo sapiens, UniProt P49761); conditions: 500 nM; relative to DMSO; read-out: Residual enzymatic activity
T17 construct: purchased Reaction Biology Corporation
In short: as §1

CDK6/cyclin D3 = target: T18, CDK6/cyclin D3 (Homo sapiens, UniProt Q00534); conditions: 500 nM; relative to DMSO; read-out: Residual enzymatic activity
T18 construct: purchased Reaction Biology Corporation
In short: as §1

RAF1 = target: T19, RAF1 (Homo sapiens, UniProt P04049); conditions: 500 nM; relative to DMSO; read-out: Residual enzymatic activity
T19 construct: purchased Reaction Biology Corporation
In short: as §1

ALK6/BMPR1B = target: T20, ALK6/BMPR1B (Homo sapiens, UniProt O00238); conditions: 500 nM; relative to DMSO; read-out: Residual enzymatic activity
T20 construct: purchased Reaction Biology Corporation
In short: as §1

RON/MST1R = target: T21, RON/MST1R (Homo sapiens, UniProt Q04912); conditions: 500 nM; relative to DMSO; read-out: Residual enzymatic activity
T21 construct: purchased Reaction Biology Corporation
In short: as §1

MNK2 = target: T22, MNK2 (Homo sapiens, UniProt Q9HBH9); conditions: 500 nM; relative to DMSO; read-out: Residual enzymatic activity
T22 construct: purchased Reaction Biology Corporation
In short: as §1

EPHB3 = target: T23, EPHB3 (Homo sapiens, UniProt P54753); conditions: 500 nM, relative to DMSO
T23 construct: purchased Reaction Biology Corporation
In short: as §1

ALK4/ACVR1B = target: T24, ALK4/ACVR1B (Homo sapiens, UniProt P36896); conditions: 500 nM; relative to DMSO; read-out: Residual enzymatic activity
T24 construct: purchased Reaction Biology Corporation
In short: as §1

TNIK = target: T25, TNIK (Homo sapiens, UniProt Q9UKE5); conditions: 500 nM; relative to DMSO; read-out: Residual enzymatic activity
T25 construct: purchased Reaction Biology Corporation
In short: as §1

MSK1/RPS6KA5 = target: T26, MSK1/RPS6KA5 (Homo sapiens, UniProt O75582); conditions: 500 nM; relative to DMSO; read-out: Residual enzymatic activity
T26 construct: purchased Reaction Biology Corporation
In short: as §1

PLK2 = target: T27, PLK2 (Homo sapiens, UniProt Q9NYY3); conditions: 500 nM; relative to DMSO; read-out: Residual enzymatic activity
T27 construct: purchased Reaction Biology Corporation
In short: as §1

[1] = read-out: Residual enzymatic activity

T12 sequence (P49759 whole entry): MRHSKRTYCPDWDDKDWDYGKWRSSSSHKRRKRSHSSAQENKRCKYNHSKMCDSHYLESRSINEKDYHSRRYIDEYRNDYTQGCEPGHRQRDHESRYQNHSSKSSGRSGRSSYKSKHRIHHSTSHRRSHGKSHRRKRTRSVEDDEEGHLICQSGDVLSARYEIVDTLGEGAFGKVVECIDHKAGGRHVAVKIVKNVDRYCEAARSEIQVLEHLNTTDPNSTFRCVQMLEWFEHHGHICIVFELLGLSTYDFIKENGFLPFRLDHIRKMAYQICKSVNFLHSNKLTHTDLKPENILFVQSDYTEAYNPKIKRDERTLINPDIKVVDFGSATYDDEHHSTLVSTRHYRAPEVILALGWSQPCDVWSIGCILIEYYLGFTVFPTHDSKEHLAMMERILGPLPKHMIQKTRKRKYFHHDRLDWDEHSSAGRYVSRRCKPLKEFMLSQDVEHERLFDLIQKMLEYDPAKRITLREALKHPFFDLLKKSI
T22 sequence (Q9HBH9 whole entry): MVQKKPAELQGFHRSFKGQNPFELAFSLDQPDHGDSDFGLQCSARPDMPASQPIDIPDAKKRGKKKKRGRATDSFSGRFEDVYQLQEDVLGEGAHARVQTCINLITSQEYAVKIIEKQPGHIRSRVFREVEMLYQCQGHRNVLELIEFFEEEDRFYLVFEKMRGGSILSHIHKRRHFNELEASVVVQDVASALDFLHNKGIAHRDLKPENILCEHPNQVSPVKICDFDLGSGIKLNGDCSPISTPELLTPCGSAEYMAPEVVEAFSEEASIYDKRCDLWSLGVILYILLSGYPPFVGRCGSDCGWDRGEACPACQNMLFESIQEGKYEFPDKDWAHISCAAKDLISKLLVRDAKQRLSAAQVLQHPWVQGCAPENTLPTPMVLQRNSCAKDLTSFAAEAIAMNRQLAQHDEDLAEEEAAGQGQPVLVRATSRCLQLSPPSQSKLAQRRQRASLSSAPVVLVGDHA
T13 sequence (Q13976 1-686 isoform Q13976-2): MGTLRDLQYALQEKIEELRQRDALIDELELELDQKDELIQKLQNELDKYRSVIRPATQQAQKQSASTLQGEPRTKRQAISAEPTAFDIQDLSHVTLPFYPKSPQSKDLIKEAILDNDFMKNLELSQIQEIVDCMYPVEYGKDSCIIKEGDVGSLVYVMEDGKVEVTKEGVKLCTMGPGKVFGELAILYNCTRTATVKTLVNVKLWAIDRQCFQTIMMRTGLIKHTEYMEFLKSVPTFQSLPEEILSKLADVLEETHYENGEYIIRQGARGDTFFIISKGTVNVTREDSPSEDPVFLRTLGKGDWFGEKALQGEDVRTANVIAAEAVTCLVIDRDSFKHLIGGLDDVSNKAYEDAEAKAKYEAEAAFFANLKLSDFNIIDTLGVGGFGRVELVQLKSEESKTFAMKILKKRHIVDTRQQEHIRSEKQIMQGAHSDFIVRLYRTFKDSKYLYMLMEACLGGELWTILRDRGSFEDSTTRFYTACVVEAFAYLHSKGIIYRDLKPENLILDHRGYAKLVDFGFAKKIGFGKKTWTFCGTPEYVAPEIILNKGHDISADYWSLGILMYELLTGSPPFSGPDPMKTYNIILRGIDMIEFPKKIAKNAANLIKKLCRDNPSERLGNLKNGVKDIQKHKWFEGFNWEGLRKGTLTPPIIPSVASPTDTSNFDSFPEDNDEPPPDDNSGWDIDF
T4 sequence (Q15349 whole entry): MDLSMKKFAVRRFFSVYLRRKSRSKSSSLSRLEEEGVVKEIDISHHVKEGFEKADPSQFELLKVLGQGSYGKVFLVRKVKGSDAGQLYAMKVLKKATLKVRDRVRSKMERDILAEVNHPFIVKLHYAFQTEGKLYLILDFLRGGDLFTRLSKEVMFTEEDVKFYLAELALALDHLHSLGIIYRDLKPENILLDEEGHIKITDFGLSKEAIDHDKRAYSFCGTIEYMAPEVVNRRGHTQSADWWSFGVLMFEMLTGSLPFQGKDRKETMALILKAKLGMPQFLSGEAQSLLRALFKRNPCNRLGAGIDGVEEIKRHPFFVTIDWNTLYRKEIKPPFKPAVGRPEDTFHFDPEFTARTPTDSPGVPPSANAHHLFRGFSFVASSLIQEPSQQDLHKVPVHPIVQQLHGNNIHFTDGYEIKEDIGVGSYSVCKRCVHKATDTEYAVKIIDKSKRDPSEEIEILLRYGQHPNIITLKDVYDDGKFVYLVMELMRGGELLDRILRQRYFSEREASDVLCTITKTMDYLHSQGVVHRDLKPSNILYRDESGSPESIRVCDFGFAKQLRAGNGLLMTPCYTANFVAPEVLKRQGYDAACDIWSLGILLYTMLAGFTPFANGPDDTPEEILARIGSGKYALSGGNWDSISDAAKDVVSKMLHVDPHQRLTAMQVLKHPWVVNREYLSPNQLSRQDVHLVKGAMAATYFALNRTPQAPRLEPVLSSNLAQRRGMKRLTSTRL
T26 sequence (O75582 whole entry): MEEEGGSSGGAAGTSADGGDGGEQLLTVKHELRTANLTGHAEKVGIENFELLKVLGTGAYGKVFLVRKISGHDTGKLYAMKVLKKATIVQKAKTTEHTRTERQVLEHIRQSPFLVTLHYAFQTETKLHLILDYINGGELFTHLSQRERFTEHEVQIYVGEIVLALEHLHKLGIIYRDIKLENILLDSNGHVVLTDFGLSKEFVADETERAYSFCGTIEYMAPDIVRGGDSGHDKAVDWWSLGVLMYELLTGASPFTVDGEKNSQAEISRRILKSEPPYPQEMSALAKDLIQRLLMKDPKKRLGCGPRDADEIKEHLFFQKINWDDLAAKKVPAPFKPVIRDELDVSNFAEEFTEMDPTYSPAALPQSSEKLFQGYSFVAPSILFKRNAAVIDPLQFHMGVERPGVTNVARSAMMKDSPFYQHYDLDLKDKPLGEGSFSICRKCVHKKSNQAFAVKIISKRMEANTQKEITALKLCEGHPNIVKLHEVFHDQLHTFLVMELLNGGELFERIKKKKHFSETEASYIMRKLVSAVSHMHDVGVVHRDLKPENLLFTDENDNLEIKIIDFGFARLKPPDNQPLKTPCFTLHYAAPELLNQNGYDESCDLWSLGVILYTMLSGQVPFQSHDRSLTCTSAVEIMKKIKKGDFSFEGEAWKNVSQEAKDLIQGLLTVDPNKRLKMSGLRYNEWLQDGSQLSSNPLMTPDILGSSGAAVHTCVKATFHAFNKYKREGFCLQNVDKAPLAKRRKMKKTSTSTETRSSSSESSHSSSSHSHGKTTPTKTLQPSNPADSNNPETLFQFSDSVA
T20 sequence (O00238 14-502): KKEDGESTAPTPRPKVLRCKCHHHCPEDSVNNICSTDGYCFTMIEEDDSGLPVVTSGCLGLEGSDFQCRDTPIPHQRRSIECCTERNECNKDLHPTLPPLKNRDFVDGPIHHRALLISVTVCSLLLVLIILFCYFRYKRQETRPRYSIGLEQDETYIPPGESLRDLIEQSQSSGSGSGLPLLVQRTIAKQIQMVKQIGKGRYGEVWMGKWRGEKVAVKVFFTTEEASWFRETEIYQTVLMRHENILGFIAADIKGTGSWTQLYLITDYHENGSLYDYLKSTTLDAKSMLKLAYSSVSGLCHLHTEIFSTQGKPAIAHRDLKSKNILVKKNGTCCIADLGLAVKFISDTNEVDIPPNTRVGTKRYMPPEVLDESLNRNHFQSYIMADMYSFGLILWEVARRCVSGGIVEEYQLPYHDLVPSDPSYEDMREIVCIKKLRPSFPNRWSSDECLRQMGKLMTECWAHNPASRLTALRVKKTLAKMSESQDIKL
T17 sequence (P49761 whole entry): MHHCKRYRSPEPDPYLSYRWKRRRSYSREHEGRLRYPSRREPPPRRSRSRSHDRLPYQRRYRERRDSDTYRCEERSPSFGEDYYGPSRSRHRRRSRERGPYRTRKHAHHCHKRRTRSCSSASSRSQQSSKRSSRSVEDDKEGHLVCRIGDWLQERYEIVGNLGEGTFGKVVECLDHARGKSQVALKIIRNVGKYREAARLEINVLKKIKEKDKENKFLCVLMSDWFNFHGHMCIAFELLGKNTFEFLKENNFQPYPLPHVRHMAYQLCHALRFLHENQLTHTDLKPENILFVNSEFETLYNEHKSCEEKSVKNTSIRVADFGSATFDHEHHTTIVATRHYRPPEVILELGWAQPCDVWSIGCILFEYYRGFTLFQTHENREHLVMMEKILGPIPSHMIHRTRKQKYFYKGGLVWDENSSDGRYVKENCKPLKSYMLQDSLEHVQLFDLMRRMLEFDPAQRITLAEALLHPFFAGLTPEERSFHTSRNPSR
T10 sequence (O96013 whole entry): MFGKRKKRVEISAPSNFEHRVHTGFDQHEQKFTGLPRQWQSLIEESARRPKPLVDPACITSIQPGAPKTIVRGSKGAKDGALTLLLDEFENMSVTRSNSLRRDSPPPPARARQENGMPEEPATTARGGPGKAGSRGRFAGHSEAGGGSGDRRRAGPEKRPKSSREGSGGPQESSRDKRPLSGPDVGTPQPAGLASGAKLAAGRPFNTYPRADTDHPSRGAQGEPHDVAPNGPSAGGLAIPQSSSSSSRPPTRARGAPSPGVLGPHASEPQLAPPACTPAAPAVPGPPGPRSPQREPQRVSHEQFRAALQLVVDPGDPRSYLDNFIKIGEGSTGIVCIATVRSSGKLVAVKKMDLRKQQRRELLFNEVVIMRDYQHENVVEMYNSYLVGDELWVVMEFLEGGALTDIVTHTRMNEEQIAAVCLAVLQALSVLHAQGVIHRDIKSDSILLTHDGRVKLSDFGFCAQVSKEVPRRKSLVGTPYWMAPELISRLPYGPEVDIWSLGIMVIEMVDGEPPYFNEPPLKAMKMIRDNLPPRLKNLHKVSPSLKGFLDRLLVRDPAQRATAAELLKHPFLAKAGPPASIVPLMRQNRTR

Structure (SMILES): COc1cc(Nc2ncnc(Nc3cc4c(cn3)NC(=O)C(C)(C)O4)n2)cc(OC)c1OC [MT-SYK-03]
- remaining activity at 0.5 µM (CK2a2): 66%
- remaining activity at 0.5 µM (TAK1): 103%
- remaining activity at 0.5 µM (PLK1): 93.4%
- remaining activity at 0.5 µM (RSK3): 91.6%
- remaining activity at 0.5 µM (CTK/MATK): 96.6%
- remaining activity at 0.5 µM (CLK2): 94.5%
- remaining activity at 0.5 µM (PBK/TOPK): 102%
- remaining activity at 0.5 µM (IRAK4): 103%
- remaining activity at 0.5 µM (MSSK1/STK23): 106%
- remaining activity at 0.5 µM (PAK4): 92.1%
- remaining activity at 0.5 µM (EPHB1): 9.6%
- pIC50 (EPHB1; 10-dose mode, threefold serial dilution from 10 μM): 7.60 and 7.61
- remaining activity at 0.5 µM (CLK1): 90.4%
- remaining activity at 0.5 µM (PKG1b): 93.9%
- remaining activity at 0.5 µM (JAK1): 63.4%
- Residual enzymatic activity (TIE2/TEK): 92.9%
- remaining activity at 0.5 µM (PKCmu/PRKD1): 98.5%
- remaining activity at 0.5 µM (CLK3): 103%
- remaining activity at 0.5 µM (CDK6/cyclin D3): 101%
- remaining activity at 0.5 µM (RAF1): 91.5%
- remaining activity at 0.5 µM (ALK6/BMPR1B): 143%
- remaining activity at 0.5 µM (RON/MST1R): 98.4%
- remaining activity at 0.5 µM (MNK2): 78.6%
- Residual enzymatic activity (EPHB3): 94.2%
- remaining activity at 0.5 µM (ALK4/ACVR1B): 125%
- remaining activity at 0.5 µM (TNIK): 78.6%
- remaining activity at 0.5 µM (MSK1/RPS6KA5): 106%
- remaining activity at 0.5 µM (PLK2): 81.6%

Structure (SMILES): COc1cc(Nc2ncc(F)c(Nc3ccc4c(n3)NC(=O)C(C)(C)O4)n2)cc(OC)c1OC [R406, reference compound]
- remaining activity at 0.5 µM (CK2a2): 21.4%
- remaining activity at 0.5 µM (TAK1): 48.3%
- remaining activity at 0.5 µM (PLK1): 60.4%
- remaining activity at 0.5 µM (RSK3): 52%
- remaining activity at 0.5 µM (CTK/MATK): 120%
- remaining activity at 0.5 µM (CLK2): 81.6%
- remaining activity at 0.5 µM (PBK/TOPK): 100%
- remaining activity at 0.5 µM (IRAK4): 41.9%
- remaining activity at 0.5 µM (MSSK1/STK23): 107%
- remaining activity at 0.5 µM (PAK4): 53.9%
- remaining activity at 0.5 µM (EPHB1): -4%
- remaining activity at 0.5 µM (CLK1): 61.7%
- remaining activity at 0.5 µM (PKG1b): 98.6%
- remaining activity at 0.5 µM (JAK1): 0%
- remaining activity at 0.5 µM (TIE2/TEK; [1]): 69.9%
- remaining activity at 0.5 µM (PKCmu/PRKD1): 82.1%
- remaining activity at 0.5 µM (CLK3): 89.4%
- remaining activity at 0.5 µM (CDK6/cyclin D3): 97.4%
- remaining activity at 0.5 µM (RAF1): 73.3%
- remaining activity at 0.5 µM (ALK6/BMPR1B): 145%
- remaining activity at 0.5 µM (RON/MST1R): 47.9%
- remaining activity at 0.5 µM (MNK2): 37.9%
- remaining activity at 0.5 µM (EPHB3; [1]): 84.4%
- remaining activity at 0.5 µM (ALK4/ACVR1B): 133%
- remaining activity at 0.5 µM (TNIK): 83.1%
- remaining activity at 0.5 µM (MSK1/RPS6KA5): 97.3%
- remaining activity at 0.5 µM (PLK2): 19.4%
